The species entered for one data set is Rattus norvegicus. Kind of data set: Activation of ATP-sensitive potassium channel opening in albino rat pancreatic islets assessed as inhibition of glucose-induced insulin release measured as residual insulin release at 10 uM after 90 mins by radioimmunoassay.
Data set [1] in a line: Activation of ATP-sensitive potassium channel opening in albino rat aorta rings assessed as relaxation of KCl-induced contraction of aorta rings. Type of data set: tissue-based.
The subject of data set [2] is Aorta. Kind of data set: Myorelaxant activity in albino rat aorta rings assessed as relaxation of KCl-induced contraction of aorta rings in presence of 10 uM KATP channel blocker glibenclamide. Type of data set: functional, tissue-based.
In data set [3] the test system is Aorta. As to the kind of experiment: Myorelaxant activity in albino rat aorta rings assessed as relaxation of 80 mM KCl-induced contraction of aorta rings. It counts as functional, tissue-based.
Data set [4] has as its system Aorta. Kind of data set: Myorelaxant activity in albino rat aorta rings assessed as relaxation of 30 mM KCl-induced contraction of aorta rings. It counts as functional, tissue-based.
Data set [5] has as its system Aorta. Kind of data set: Myorelaxant activity in albino rat aorta rings assessed as relaxation of KCl-induced contraction of aorta rings in presence of 1 uM KATP channel blocker glibenclamide. Type of data set: functional, tissue-based.
Data set [6] has as its system Aorta. Kind of data set: Myorelaxant activity in albino rat aorta rings assessed as relaxation of KCl-induced contraction of aorta rings. It counts as functional, tissue-based.
Data set [7] in a line: Dissociation constant, pKa of the compound in water at 25 degC. It counts as physicochemical.

Structures are written as SMILES.

In the case of `CC(C)NC1=NS(=O)(=O)c2cc(S(C)(=O)=O)ccc2S1`, the Activity in the data set listed under Rattus norvegicus worked out at 76.3%. For the same compound, the EC50 (as a rule, the concentration giving half of the maximal effect) in data set [1] was more than 200 µM.
On to `CC(SC1=NS(=O)(=O)c2cc(F)ccc2N1)c1ccccc1` (configuration not stated) [listing 1 of 2 here], for which the Activity in the data set filed under Rattus norvegicus amounted to 95.5%.
Regarding `CC(SC1=NS(=O)(=O)c2ccc(Cl)cc2N1)c1ccccc1` (configuration not stated), in the data set listed under Rattus norvegicus, the Activity came to 76.3%. Also, the EC50 in data set [1] came to 5.7 µM.
For `CC(SC1=NS(=O)(=O)c2cc(I)ccc2N1)c1ccccc1` (configuration not stated), in the data set filed under Rattus norvegicus, the Activity came to 81.4%. Besides, the EC50 in data set [1] was found to be 5.4 µM.
For the compound `CC(C)NC1=NS(=O)(=O)c2cnccc2S1`, the Activity in the data set filed under Rattus norvegicus turned out to be 90.6%. Besides, the EC50 in data set [1] was determined as 190 µM.
For `CC(C)NC1=NS(=O)(=O)c2cc(C(=O)O)ccc2S1`, in that order: 68.5% and more than 200 µM.
Turning to `COc1ccc(CCN(C)CCCC(C#N)(c2ccc(OC)c(OC)c2)C(C)C)cc1OC` (configuration not stated) [VERAPAMIL], the EC50 turned out to be 0.35 µM with Aorta [2], 0.052 µM in the data set on Aorta [3], 0.031 µM in the data set with Aorta [4] and 0.038 µM with Aorta [5]. Further, the Activity entry in the data set with Aorta [6] was “Dose-dependent effect”.
Regarding `CC(NC1=NS(=O)(=O)c2cc(C(F)(F)F)ccc2S1)c1ccccc1` (racemic) [listing 1 of 2 here], the EC50 in the data set with Aorta [2] (read-out: EC50) came out at 15.5 µM; in data set [1], 11.6 µM; in the data set on Aorta [3], 14.9 µM; in the data set with Aorta [4] it was 16.2 µM; with Aorta [5], 17.3 µM.
For the compound `CCC(C)NC1=NS(=O)(=O)c2cc([N+](=O)[O-])ccc2S1` (configuration not stated), the Activity in the data set listed under Rattus norvegicus was determined as 110%. Moreover, the EC50 in data set [1] was found to be 59.9 µM.
The corresponding values for `CCC(C)NC1=NS(=O)(=O)c2cc(C(F)(F)F)ccc2S1` (configuration not stated) are 110% and 38.8 µM.
For `O=[N+]([O-])c1ccc2c(c1)S(=O)(=O)N=C(NC1CCCC1)S2`, in that order: 100% and 42.6 µM.
Consider `O=S1(=O)N=C(Nc2ccccc2)Sc2ccc(C(F)(F)F)cc21`, for which the Activity in the data set filed under Rattus norvegicus amounted to 67.8%. Further, in data set [1], the EC50 is 13.7 µM.
Regarding `CC(C)NC1=NS(=O)(=O)c2c[n+]([O-])ccc2S1`, the Activity in the data set listed under Rattus norvegicus was found to be 76.7%. In data set [1], the EC50 was more than 200 µM.
As to `CC(NC1=NS(=O)(=O)c2cc(C(F)(F)F)ccc2S1)c1ccccc1` (racemic) [listing 2 of 2 here], the Activity in the data set filed under Rattus norvegicus worked out at 97%.
Regarding `CC(C)NC1=NS(=O)(=O)c2cc(Cl)ccc2N1`, in the data set filed under Rattus norvegicus, the Activity was 4.8%. Further, the EC50 in data set [1] was found to be 31.8 µM.
The corresponding values for `CC(C)NC1=NS(=O)(=O)c2cc(C(F)(F)F)ccc2S1` are 108% and 53.7 µM.
With `C[C@@H](NC1=NS(=O)(=O)c2cc(C(F)(F)F)ccc2S1)c1ccccc1`, the EC50 in data set [1] was more than 30 µM.
Consider `CC(NC1=NS(=O)(=O)c2cc([N+](=O)[O-])ccc2S1)c1ccccc1` (configuration not stated), for which the Activity in the data set listed under Rattus norvegicus was 91.5%. Besides, in data set [1], the EC50 turned out to be 15.9 µM.
`C[C@H](NC1=NS(=O)(=O)c2cc(C(F)(F)F)ccc2S1)c1ccccc1`: the concentration giving a half-maximal response (EC50) in data set [1] turned out to be 11.3 µM.
With `CC(SC1=NS(=O)(=O)c2cc(Br)ccc2N1)c1ccccc1` (configuration not stated), the Activity in the data set filed under Rattus norvegicus worked out at 91.7%. Further, the EC50 in data set [1] was determined as 11.9 µM.
On to `CC(SC1=NS(=O)(=O)c2cc(Cl)ccc2N1)c1ccccc1` (configuration not stated), for which, in the data set filed under Rattus norvegicus, the Activity was found to be 71.1%. The EC50 in data set [1] is 5.4 µM.
Regarding `CC(SC1=NS(=O)(=O)c2cc(F)ccc2N1)c1ccccc1` (configuration not stated) [listing 2 of 2 here], the EC50 in data set [1] was 15 µM.
As for `CS(=O)(=O)c1ccc2c(c1)S(=O)(=O)N=C(Nc1ccccc1)S2`, the Activity in the data set listed under Rattus norvegicus amounted to 92.4%. Moreover, in data set [1], the EC50 was more than 30 µM.
Consider `CC1=Nc2ccc(Cl)cc2S(=O)(=O)N1` [DIAZOXIDE], for which the EC50 with Aorta [2] (read-out: EC50) was 280 µM; in data set [1] it was 26.2 µM; in the data set on Aorta [3], more than 300 µM; in the data set with Aorta [4], 23.8 µM; in the data set with Aorta [5] it was 154 µM. Further, the Activity in the data set listed under Rattus norvegicus is 73.9%.
`CC(C)NC1=NS(=O)(=O)c2cc(C#N)ccc2S1`: the Activity in the data set filed under Rattus norvegicus was determined as 86.2%. For the same compound, the EC50 in data set [1] is 152 µM.
Turning to `O=[N+]([O-])c1ccc2c(c1)S(=O)(=O)N=C(NC1CC1)S2`, the Activity in the data set filed under Rattus norvegicus amounted to 88.2%. Besides, the EC50 in data set [1] is more than 200 µM.
For the compound `CC(C)NC1=NS(=O)(=O)c2ccc(Cl)cc2S1`, the Activity in the data set listed under Rattus norvegicus was 78.9%. The EC50 in data set [1] is more than 30 µM.
As to `CC(SC1=NS(=O)(=O)c2cc(F)ccc2N1)c1ccccc1` (racemic), the EC50 came out at 36.2 µM in the data set on Aorta [2] (read-out: EC50), 27.5 µM with Aorta [3], 13.2 µM with Aorta [4] and 33.3 µM in the data set with Aorta [5].
As for `O=S1(=O)N=C(NC2CCCC2)Sc2ccc(C(F)(F)F)cc21`, in the data set listed under Rattus norvegicus, the Activity stood at 89.5%. Besides, the EC50 in data set [1] turned out to be 48.7 µM.
`CC(NC1=NS(=O)(=O)c2cc(C(F)(F)F)ccc2S1)c1ccccc1` (stereo in doubt; 6t): in the data set filed under Rattus norvegicus, the Activity stood at 97%.
For `CCNC1=NS(=O)(=O)c2cc([N+](=O)[O-])ccc2S1`, in the data set filed under Rattus norvegicus, the Activity is 100%. In addition, in data set [1], the EC50 is more than 30 µM.
As for `O=[N+]([O-])c1ccc2c(c1)S(=O)(=O)N=C(Nc1ccccc1)S2`, in the data set listed under Rattus norvegicus, the Activity came to 89.5%. Also, the EC50 in data set [1] was more than 200 µM.
For `CC(C)CNC1=NS(=O)(=O)c2cc([N+](=O)[O-])ccc2S1`, in that order: 110% and 69.1 µM.
Take `CC(NC1=NS(=O)(=O)c2cc(S(C)(=O)=O)ccc2S1)c1ccccc1` (configuration not stated): in the data set filed under Rattus norvegicus, the Activity came to 83.4%. In addition, the EC50 in data set [1] is more than 30 µM.
In the case of `CC(C)NC1=NS(=O)(=O)c2cc([N+](=O)[O-])ccc2S1`, in the data set filed under Rattus norvegicus, the Activity stood at 97.7%. Moreover, the 50% effective concentration (EC50) in data set [1] worked out at 176 µM.
With `CC(SC1=NS(=O)(=O)c2cccc(Cl)c2N1)c1ccccc1` (configuration not stated), in the data set listed under Rattus norvegicus, the Activity was determined as 79.2%. Also, the EC50 in data set [1] was more than 30 µM.
On to `O=[N+]([O-])c1ccc2c(c1)S(=O)(=O)N=C(NCC1CC1)S2`, for which the Activity in the data set listed under Rattus norvegicus was 90.2%. Also, the EC50 in data set [1] amounted to 61.1 µM.
Turning to `CC(C)NC1=NS(=O)(=O)c2cccc(Cl)c2S1`, the Activity in the data set listed under Rattus norvegicus was 82.4%. The EC50 in data set [1] is more than 30 µM.
For `O=[N+]([O-])c1ccc2c(c1)S(=O)(=O)N=C(NCc1ccccc1)S2`, in that order: 77.7% and more than 30 µM.
In the case of `CC(C)NC1=NS(=O)(=O)c2cc(Cl)ccc2S1`, the Activity in the data set filed under Rattus norvegicus turned out to be 92.2%. Also, the EC50 in data set [1] is more than 100 µM. In addition, the pKa – broadly, the negative logarithm of the acid dissociation constant – in data set [7] is 9.76.

The values are drawn from ChEMBL document CHEMBL2321790, “1,4,2-Benzo/pyridodithiazine 1,1-dioxides structurally related to the ATP-sensitive potassium channel openers 1,2,4-Benzo/pyridothiadiazine 1,1-dioxides exert a myorelaxant activity linked to a distinct mechanism of action” (J Med Chem, 2013).
